Measurements: patent publication US11339130B1 (Blade Therapeutics, Inc., priority 2016, dated 2022)

Key:
Assay type in all cases: biochemical
Human Calpain 1/NS1 = molecular target: T1, Human Calpain 1/NS1 (Homo sapiens, UniProt P07384); assay: Calpain inhibition continuous fluorescence (FRET) assay, Human Calpain 1/NS1; details: Column A; read-out: Human Calpain 1/NS1 IC50
T1 sequence (P07384 1-714): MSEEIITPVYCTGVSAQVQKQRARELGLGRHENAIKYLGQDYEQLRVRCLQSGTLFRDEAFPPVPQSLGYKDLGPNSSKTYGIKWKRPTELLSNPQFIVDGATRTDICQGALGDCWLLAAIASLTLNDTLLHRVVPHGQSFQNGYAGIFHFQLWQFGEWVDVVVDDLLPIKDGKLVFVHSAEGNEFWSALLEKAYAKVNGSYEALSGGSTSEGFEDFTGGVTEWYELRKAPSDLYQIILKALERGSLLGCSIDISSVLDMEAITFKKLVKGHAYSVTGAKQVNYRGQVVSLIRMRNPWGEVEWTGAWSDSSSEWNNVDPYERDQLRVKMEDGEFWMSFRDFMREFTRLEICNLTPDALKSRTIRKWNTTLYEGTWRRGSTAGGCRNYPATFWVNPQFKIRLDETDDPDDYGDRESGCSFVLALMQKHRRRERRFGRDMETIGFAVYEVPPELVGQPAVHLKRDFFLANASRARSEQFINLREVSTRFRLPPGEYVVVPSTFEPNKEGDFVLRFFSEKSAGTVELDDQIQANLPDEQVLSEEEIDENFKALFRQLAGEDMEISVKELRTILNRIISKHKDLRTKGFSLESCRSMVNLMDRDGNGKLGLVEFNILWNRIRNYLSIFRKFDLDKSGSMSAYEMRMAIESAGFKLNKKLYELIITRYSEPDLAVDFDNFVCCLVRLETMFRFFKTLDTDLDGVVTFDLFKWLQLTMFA
T1 sequence (P04632 1-268 partner): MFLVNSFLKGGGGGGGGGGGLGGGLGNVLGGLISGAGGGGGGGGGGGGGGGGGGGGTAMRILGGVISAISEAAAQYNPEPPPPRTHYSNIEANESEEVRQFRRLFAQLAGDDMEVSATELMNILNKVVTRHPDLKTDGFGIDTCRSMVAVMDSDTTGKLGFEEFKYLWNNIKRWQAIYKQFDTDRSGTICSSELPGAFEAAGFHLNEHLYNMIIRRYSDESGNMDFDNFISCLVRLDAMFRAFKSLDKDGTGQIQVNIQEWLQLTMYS
Procedure: (§1) Calpain 1, 2, and 9 activity and inhibition thereof was assessed by means of a continuous fluorescence assay. The SensoLyte 520 Calpain substrate (Anaspec Inc) was optimized for detecting calpain activity. This substrate contains an internally quenched 5-FAM/QXL™ 520 FRET pair. Calpains 1, 2, and 9 cleave the FRET substrate into two separate fragments resulting in an increase of 5-FAM fluorescence that is proportional to calpain activity
(§2) Assays were typically setup in black 384-well plates using automated liquid handling as follows. Calpain assay base buffer typically contains 50 mM Tris, pH 7.5, 100 mM NaCl and 1 mM DTT. Inhibitors were serially diluted in DMSO and used to setup 2× mixtures with calpains in the aforementioned buffer. After incubation at ambient temperature (25C), the reaction was initiated by adding a 2× mix of the fluorescent peptide substrate and CaCl2) (required for in-situ calpain activation) in the same buffer. Reaction progress curve data were typically collected for 10 min using excitation/emission wavelengths of 490 nm/520 nm on SpectraMax i3× or the FLIPR-Tetra plate readers (Molecular Devices Inc). Reaction rates were calculated from progress curve slopes typically over 1-5 min. Dose response curves (rate vs. log inhibitor concentration) were typically fit to a 4-parameter logistic function to extract IC50 values.

Human Calpain 2/NS1 = molecular target: T2, Human Calpain 2/NS1 (Homo sapiens, UniProt P17655); assay: Calpain inhibition continuous fluorescence (FRET) assay, Human Calpain 2/NS1; details: Column B; read-out: Human Calpain 2/NS1 IC50
T2 sequence (P17655 1-700): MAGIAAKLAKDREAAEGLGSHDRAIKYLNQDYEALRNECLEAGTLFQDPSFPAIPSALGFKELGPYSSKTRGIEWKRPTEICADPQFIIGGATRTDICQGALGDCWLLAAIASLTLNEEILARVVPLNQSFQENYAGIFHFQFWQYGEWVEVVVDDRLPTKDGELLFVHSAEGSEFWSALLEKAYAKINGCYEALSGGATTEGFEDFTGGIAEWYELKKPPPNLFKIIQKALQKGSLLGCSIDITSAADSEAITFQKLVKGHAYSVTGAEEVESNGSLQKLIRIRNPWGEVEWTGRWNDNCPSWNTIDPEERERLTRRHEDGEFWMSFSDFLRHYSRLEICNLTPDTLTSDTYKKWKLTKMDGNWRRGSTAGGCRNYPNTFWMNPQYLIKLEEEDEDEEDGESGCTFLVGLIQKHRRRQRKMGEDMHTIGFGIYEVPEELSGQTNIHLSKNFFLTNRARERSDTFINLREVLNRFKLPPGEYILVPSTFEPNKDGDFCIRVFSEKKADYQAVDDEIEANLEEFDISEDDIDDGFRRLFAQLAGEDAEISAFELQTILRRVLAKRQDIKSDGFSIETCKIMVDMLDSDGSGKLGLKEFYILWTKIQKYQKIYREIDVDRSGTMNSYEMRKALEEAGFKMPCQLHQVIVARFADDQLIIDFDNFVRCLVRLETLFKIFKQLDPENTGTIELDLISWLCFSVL
T2 sequence (P04632 1-268 partner): T1 sequence (P04632 1-268 partner)
Procedure: as §1, §2

Human Calpain 9/NS1 = molecular target: T3, Human Calpain 9/NS1 (Homo sapiens, UniProt O14815); assay: Calpain inhibition continuous fluorescence (FRET) assay, Human Calpain 9/NS1; details: Column C; read-out: Human Calpain 9/NS1 IC50
T3 sequence (O14815 1-690): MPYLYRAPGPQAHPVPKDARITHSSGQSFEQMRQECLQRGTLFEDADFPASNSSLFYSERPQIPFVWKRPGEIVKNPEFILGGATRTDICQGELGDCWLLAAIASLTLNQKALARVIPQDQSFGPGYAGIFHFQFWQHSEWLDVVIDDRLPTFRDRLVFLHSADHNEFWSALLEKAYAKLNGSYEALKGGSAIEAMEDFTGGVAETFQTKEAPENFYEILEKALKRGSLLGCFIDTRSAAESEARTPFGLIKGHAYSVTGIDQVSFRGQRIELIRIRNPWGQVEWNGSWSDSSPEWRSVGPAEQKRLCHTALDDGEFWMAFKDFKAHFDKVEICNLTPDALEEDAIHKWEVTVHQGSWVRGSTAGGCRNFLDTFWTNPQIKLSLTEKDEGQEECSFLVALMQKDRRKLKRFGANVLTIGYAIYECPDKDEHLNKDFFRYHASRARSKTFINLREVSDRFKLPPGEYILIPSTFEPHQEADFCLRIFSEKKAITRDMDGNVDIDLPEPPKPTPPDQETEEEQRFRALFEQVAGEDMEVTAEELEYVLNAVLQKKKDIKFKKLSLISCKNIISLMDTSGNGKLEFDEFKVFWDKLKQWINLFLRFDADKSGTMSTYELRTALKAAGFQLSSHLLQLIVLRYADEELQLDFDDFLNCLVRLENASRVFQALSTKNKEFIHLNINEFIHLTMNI
T3 sequence (P04632 1-268 partner): T1 sequence (P04632 1-268 partner)
Procedure: as §1, §2

IC50 (Human Calpain 1/NS1) | IC50 (Human Calpain 2/NS1) | IC50 (Human Calpain 9/NS1) | SMILES
> 10 µM | 3 to 10 µM | 3 to 10 µM | Cc1cc(C(=O)N[C@@H](Cc2ccccc2)C(=O)C(N)=O)n(-c2ncccn2)n1 (single isomer, unassigned) [Compound 36]
> 10 µM | 3 to 10 µM | 3 to 10 µM | Cc1cc(C(=O)N[C@H](C=O)Cc2ccccc2)nn1-c1ccccc1 [Compound 5]
< 3 µM | < 3 µM | < 3 µM | NC(=O)C(=O)[C@H](Cc1ccccc1)NC(=O)c1csnc1-c1ccccc1 [Compound 11, (S)—N-(4-amino-3,4-dioxo-1-phenylbutan-2-yl)-3-phenylisothiazole-4-carboxamide]
< 3 µM | < 3 µM | < 3 µM | NC(=O)C(=O)[C@H](Cc1ccccc1)NC(=O)c1scnc1-c1ccccc1 [Compound 18, (S)—N-(4-amino-3,4-dioxo-1-phenylbutan-2-yl)-4-phenyl thiazole-5-carboxamide]
< 3 µM | < 3 µM | < 3 µM | Cc1noc(-c2ccc3c(c2)OCO3)c1C(=O)N[C@@H](Cc1ccccc1)C(=O)C(N)=O [Compound 20, (S)—N-(4-amino-3,4-dioxo-1-phenylbutan-2-yl)-5-(benzo[D][1,3]dioxol-5-yl)-3-methylisoxazole-4-carboxamide]
< 3 µM | < 3 µM | < 3 µM | O=C[C@H](Cc1ccccc1)NC(=O)c1cncn1-c1nc2ccccc2s1 [Compound 29, (S)-1-(benzo[d]thiazol-2-yl)-N-(1-oxo-3-phenylpropan-2-yl)-1H-imidazole-5-carboxamide]
< 3 µM | < 3 µM | < 3 µM | O=C[C@H](Cc1ccccc1)NC(=O)c1cncn1-c1ccn(-c2ccccc2)n1 [Compound 34, (S)—N-(1-oxo-3-phenylpropan-2-yl)-1-(1-phenyl-1H-pyrazol-3-yl)-1H-imidazole-5-carboxamide]
< 3 µM | < 3 µM | < 3 µM | Cc1cc(C(=O)N[C@@H](Cc2ccccc2)C(=O)C(N)=O)n(-c2cccc3ccccc23)n1 [Compound 38, (S)—N-(4-amino-3,4-dioxo-1-phenylbutan-2-yl)-3-methyl-1-(naphthalen-1-yl)-1H-pyrazole-5-carboxamide]

More lines, now with the values behind:

SMILES | IC50 (Human Calpain 1/NS1) | IC50 (Human Calpain 2/NS1) | IC50 (Human Calpain 9/NS1)
O=C[C@H](Cc1ccccc1)NC(=O)c1cncn1-c1ccccc1 [Compound 1, (S)—N-(1-oxo-3-phenylpropan-2-yl)-1-phenyl-1H-imidazole-5-carboxamide] | < 3 µM | < 3 µM | < 3 µM
O=C[C@H](Cc1ccccc1)NC(=O)[C@@H]1CCCN1c1nc2ccccc2s1 [Compound 3, (S)-1-(benzo[D]thiazol-2-yl)-N—((S)-1-oxo-3-phenylpropan-2-yl)pyrrolidine-2-carboxamide] | < 3 µM | < 3 µM | < 3 µM
O=C[C@H](Cc1ccccc1)NC(=O)[C@@H]1CCCN1c1nc2ccccc2o1 [Compound 4, (S)-1-(benzo[D]oxazol-2-yl)-N—((S)-1-oxo-3-phenylpropan-2-yl)pyrrolidine-2-carboxamide] | < 3 µM | < 3 µM | < 3 µM
NC(=O)C(=O)[C@H](Cc1ccccc1)NC(=O)c1cncn1-c1ccccc1 [Compound 7, (S)—N-(4-amino-3,4-dioxo-1-phenylbutan-2-yl)-1-phenyl-1H-imidazole-5-carboxamide] | < 3 µM | < 3 µM | < 3 µM
Cc1cc(C(=O)N[C@H](C=O)Cc2ccccc2)n(-c2ccccc2)n1 [Compound 8, (S)-3-methyl-N-(1-oxo-3-phenylpropan-2-yl)-1-phenyl-1H-pyrazole-5-Carboxamide] | < 3 µM | < 3 µM | < 3 µM
NC(=O)C(=O)[C@H](Cc1ccccc1)NC(=O)c1ccnn1-c1ccccc1 [Compound 10, (S)—N-(4-amino-3,4-dioxo-1-phenylbutan-2-yl)-1-phenyl-1H-pyrazole-5-carboxamide] | < 3 µM | < 3 µM | < 3 µM
O=C[C@H](Cc1ccccc1)NC(=O)c1scnc1-n1cc(-c2ccccc2)cn1 [Compound 21, (S)—N-(1-oxo-3-phenylpropan-2-yl)-4-(4-phenyl-1H-pyrazol-1-yl)thiazole-5-carboxamide] | < 3 µM | < 3 µM | < 3 µM
O=C[C@H](Cc1ccccc1)NC(=O)c1scnc1-n1ncc2ccccc21 [Compound 22, (S)-4-(1H-indazol-1-yl)-N-(1-oxo-3-phenylpropan-2-yl)thiazole-5-carboxamide] | < 3 µM | < 3 µM | < 3 µM
O=C[C@H](Cc1ccccc1)NC(=O)c1cncn1-c1ccccn1 [Compound 31, (S)—N-(1-oxo-3-phenylpropan-2-yl)-1-(pyridin-2-yl)-1H-imidazole-5-carboxamide] | < 3 µM | < 3 µM | < 3 µM
Cc1noc(-c2ccccc2)c1C(=O)N[C@@H](CC(C)C)C(=O)C(N)=O [Compound 35, (S)—N-(1-amino-5-methyl-1,2-dioxohexan-3-yl)-3-methyl-5-phenylisoxazole-4-carboxamide] | < 3 µM | < 3 µM | < 3 µM
NC(=O)C(=O)[C@H](Cc1ccccc1)NC(=O)c1scnc1-n1cc2ccccc2n1 [Compound 37, (S)—N-(4-amino-3,4-dioxo-1-phenylbutan-2-yl)-4-(2H-indazol-2-yl)thiazole-5-carboxamide] | < 3 µM | < 3 µM | < 3 µM
